Source: patent publication US7998965B2, “Glutamate aggrecanase inhibitors” (Wyeth LLC, priority 2005, dated 2011)

How the values were obtained:
[1] = target: T1, purified recombinant human Aggrecanase-1 (rAgg1) (Homo sapiens, UniProt O75173); test: In vitro fluorescence screen for Aggrecanase-1 inhibitors; format: biochemical; parameters: Agg1 % at concentration: scale not given here; conditions: Table 3; for IC50: read-out: Agg1 IC50; for Ki: read-out: Ki Agg1
T1 sequence (O75173 213-837): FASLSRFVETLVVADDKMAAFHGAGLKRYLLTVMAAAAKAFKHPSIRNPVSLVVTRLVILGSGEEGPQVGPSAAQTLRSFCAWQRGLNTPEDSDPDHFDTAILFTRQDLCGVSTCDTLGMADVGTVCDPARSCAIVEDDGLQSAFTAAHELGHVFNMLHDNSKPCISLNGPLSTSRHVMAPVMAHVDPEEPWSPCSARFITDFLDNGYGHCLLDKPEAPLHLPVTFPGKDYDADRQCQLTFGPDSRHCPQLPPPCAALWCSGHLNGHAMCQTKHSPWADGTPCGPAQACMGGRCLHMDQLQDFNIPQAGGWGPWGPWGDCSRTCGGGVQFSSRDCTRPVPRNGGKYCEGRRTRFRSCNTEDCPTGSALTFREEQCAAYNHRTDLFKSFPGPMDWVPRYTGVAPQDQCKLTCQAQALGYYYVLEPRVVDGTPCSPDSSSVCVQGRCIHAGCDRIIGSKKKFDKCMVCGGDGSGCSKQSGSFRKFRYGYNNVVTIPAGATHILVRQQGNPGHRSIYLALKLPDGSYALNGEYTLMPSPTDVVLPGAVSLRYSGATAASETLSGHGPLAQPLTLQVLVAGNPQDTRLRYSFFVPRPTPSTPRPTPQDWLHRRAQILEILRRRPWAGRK

[2] = target: T2, purified recombinant human Aggrecanase-2 (Ag2t-Phe628-Strep) (Homo sapiens, UniProt Q9UNA0); test: In vitro fluorescence screen for Aggrecanase-2 inhibitors; format: biochemical; conditions: for IC50: read-out: Agg 2 IC50; for Ki: read-out: Ki Agg2
T2 construct: the form used is denoted as Ag2t-Phe628-Strep (MW=41,737)
T2 sequence (Q9UNA0 262-628): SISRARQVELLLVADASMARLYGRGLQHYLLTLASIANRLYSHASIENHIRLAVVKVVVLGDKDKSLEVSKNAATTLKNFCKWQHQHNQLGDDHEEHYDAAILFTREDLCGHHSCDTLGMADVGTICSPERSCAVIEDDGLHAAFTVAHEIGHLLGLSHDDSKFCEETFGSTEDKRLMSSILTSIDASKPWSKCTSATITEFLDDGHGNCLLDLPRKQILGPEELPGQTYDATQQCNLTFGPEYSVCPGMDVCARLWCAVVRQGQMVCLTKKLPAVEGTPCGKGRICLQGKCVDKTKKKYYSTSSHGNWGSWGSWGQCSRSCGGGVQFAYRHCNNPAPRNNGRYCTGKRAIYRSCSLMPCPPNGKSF

| SMILES | Agg1 % at concentration ([1]; at 200 (nM)) | IC50 ([2]; Table 3) | IC50 [1] | Ki [1] | Ki ([2]; Table 3) | inhibition at 2.5 µM ([2]; Table 3, at 2500 (nM), read-out: Agg 2 % at concentration) | inhibition at 7.4 µM ([2]; read-out: Agg 2 % at concentration) |
| --- | --- | --- | --- | --- | --- | --- | --- |
| CC(C)(Cc1ccc(Cl)cc1)NC(=O)[C@H](CCC(=O)O)NC(=O)c1ccc(-c2ccc3c(c2)OCC3)cc1 [N-[2-(4-chlorophenyl)-1,1-dimethylethyl]-N^2-[4-(2,3-dihydro-1-benzofuran-6-yl)benzoyl]-L-α-glutamine] | 65% | 90 to 270 nM | – | – | – | – | – |
| CC(C)(Cc1ccc(Cl)cc1)NC(=O)[C@H](CCC(=O)O)NC(=O)c1ccc(-c2ccc(Cl)s2)cc1 [N-[2-(4-chlorophenyl)-1,1-dimethylethyl]-N^2-[4-(5-chloro-2-thienyl)benzoyl]-L-α-glutamine] | – | 70 to 200 nM | < 30 nM | 5.4 nM | 51 nM | – | – |
| CC(C)(Cc1ccc(Cl)cc1)NC(=O)[C@H](CCC(=O)O)NC(=O)c1ccc(-c2ccc(C=O)s2)cc1 [N-[2-(4-chlorophenyl)-1,1-dimethylethyl]-N^2-[4-(5-formyl-2-thienyl)benzoyl]-L-α-glutamine] | – | 900 nM | < 30 nM | – | – | – | – |
| CC(C)(Cc1ccc(Cl)cc1)NC(=O)[C@H](CCC(=O)O)NC(=O)c1sccc1-c1ccccc1 [N-[2-(4-chlorophenyl)-1,1-dimethylethyl]-N^2-[(3-phenyl-2-thienyl)carbonyl]-L-α-glutamine] | – | > 100000 nM | > 25000 nM | – | – | – | – |
| CC(C)(Cc1ccc(Cl)cc1)NC(=O)[C@H](CCC(=O)O)NC(=O)c1ccc(-c2ccncc2)s1 [N-[2-(4-chlorophenyl)-1,1-dimethylethyl]-N^2-[(5-pyridin-4-yl-2-thienyl)carbonyl]-L-α-glutamine] | – | 3400 nM | 40 nM | – | – | – | – |
| CC(C)(Cc1ccc(Cl)cc1)NC(=O)[C@H](CCC(=O)O)NC(=O)c1ccc(-c2ccc(Cl)cc2)s1 [N-[2-(4-chlorophenyl)-1,1-dimethylethyl]-N^2-{[5-(4-chlorophenyl)-2-thienyl]carbonyl}-L-α-glutamine] | – | > 300 nM | < 30 nM | – | – | – | – |
| CC(C)(Cc1ccc(Cl)cc1)NC(=O)[C@H](CCC(=O)O)NC(=O)c1ccc(-c2ccc(F)cc2)s1 [N-[2-(4-chlorophenyl)-1,1-dimethylethyl]-N^2-{[5-(4-fluorophenyl)-2-thienyl]carbonyl}-L-α-glutamine] | – | 30 to 100 nM | < 30 nM | < 3 nM | 87 nM | – | – |
| CC(C)(Cc1ccc(Cl)cc1)NC(=O)[C@H](CCC(=O)O)NC(=O)c1ccc(-c2ccc(Cl)s2)nc1 [N-[2-(4-chlorophenyl)-1,1-dimethylethyl]-N^2-{[6-(5-chloro-2-thienyl)pyridin-3-yl]carbonyl}-L-α-glutamine] | – | 100 to 300 nM | 20 to 70 nM | 40.6 nM | 526 nM | – | – |
| CC(C)(Cc1ccc(F)cc1)NC(=O)[C@H](CCC(=O)O)NC(=O)c1ccc(-c2ccccc2)s1 [N-[2-(4-fluorophenyl)-1,1-dimethylethyl]-N^2-[(5-phenyl-2-thienyl)carbonyl]-L-α-glutamine] | – | 60 to 200 nM | < 30 nM | 3.8 nM | 79 nM | – | – |
| CC(C)(Cc1ccc(F)cc1)NC(=O)[C@H](CCC(=O)O)NC(=O)c1ccc(-c2ccccc2)nc1 [N-[2-(4-fluorophenyl)-1,1-dimethylethyl]-N^2-[(6-phenylpyridin-3-yl)carbonyl]-L-α-glutamine] | – | 1000 nM | 50 nM | – | – | – | – |
| COc1cccc(-c2ccc(C(=O)N[C@@H](CCC(=O)O)C(=O)NC(C)(C)Cc3ccc(F)cc3)s2)c1 [N-[2-(4-fluorophenyl)-1,1-dimethylethyl]-N^2-{[5-(3-methoxyphenyl)-2-thienyl]carbonyl}-L-α-glutamine] | – | 100 to 300 nM | < 30 nM | 6.2 nM | 143 nM | – | – |
| COc1cccc(-c2ccc(C(=O)N[C@@H](CCC(=O)O)C(=O)NC(C)(C)Cc3ccc(F)cc3)cn2)c1 [N-[2-(4-fluorophenyl)-1,1-dimethylethyl]-N^2-{[6-(3-methoxyphenyl)pyridin-3-yl]carbonyl}-L-α-glutamine] | – | 5200 nM | 140 nM | – | – | – | – |
| CC(C)(Cc1ccccc1)NC(=O)[C@H](CCC(=O)O)NC(=O)c1ccc(-c2cccs2)s1 [N^2-(2,2′-bithien-5-ylcarbonyl)-N-(1,1-dimethyl-2-phenylethyl)-L-α-glutamine] | – | 200 to 600 nM | < 30 nM | – | – | – | – |
| CC(C)(Cc1ccc(Cl)cc1)NC(=O)[C@H](CCC(=O)O)NC(=O)c1ccc(-c2cccs2)s1 [N^2-(2,2′-bithien-5-ylcarbonyl)-N-[2-(4-chlorophenyl)-1,1-dimethylethyl]-L-α-glutamine] | – | 600 to 1800 nM | < 30 nM | 86 nM | 1150 nM | – | – |
| CC(C)(Cc1ccc(F)cc1)NC(=O)[C@H](CCC(=O)O)NC(=O)c1ccc(Br)cc1 [N^2-(4-bromobenzoyl)-N-[2-(4-fluorophenyl)-1,1-dimethylethyl]-L-α-glutamine] | – | 7400 nM | 1040 nM | – | – | – | – |
| CC(C)(Cc1ccccc1)NC(=O)[C@H](CCC(=O)O)NC(=O)c1cccc(-c2ccc(Cl)s2)c1 [N^2-[3-(5-chloro-2-thienyl)benzoyl]-N-(1,1-dimethyl-2-phenylethyl)-L-α-glutamine] | – | > 8300 nM | > 900 nM | – | – | – | – |
| CC(C)(Cc1ccccc1)NC(=O)[C@H](CCC(=O)O)NC(=O)c1ccc(-c2ccc3c(c2)OCC3)cc1 [N^2-[4-(2,3-dihydro-1-benzofuran-6-yl)benzoyl]-N-(1,1-dimethyl-2-phenylethyl)-L-α-glutamine] | – | 270 to 800 nM | 70 nM | – | – | – | – |
| CC(=O)c1ccc(-c2ccc(C(=O)N[C@@H](CCC(=O)O)C(=O)NC(C)(C)Cc3ccccc3)cc2)s1 [N^2-[4-(5-acetyl-2-thienyl)benzoyl]-N-(1,1-dimethyl-2-phenylethyl)-L-α-glutamine] | – | – | 300 to 900 nM | – | – | 5% | – |
| CC(=O)c1ccc(-c2ccc(C(=O)N[C@@H](CCC(=O)O)C(=O)NC(C)(C)Cc3ccc(Cl)cc3)cc2)s1 [N^2-[4-(5-acetyl-2-thienyl)benzoyl]-N-[2-(4-chlorophenyl)-1,1-dimethylethyl]-L-α-glutamine] | – | – | 2400 nM | – | – | – | 50% |
| CC(C)(Cc1ccc(Cl)cc1)NC(=O)[C@H](CCC(=O)O)NC(=O)c1ccc(-c2ccc(Br)s2)cc1 [N^2-[4-(5-bromo-2-thienyl)benzoyl]-N-[2-(4-chlorophenyl)-1,1-dimethylethyl]-L-α-glutamine] | – | 30 to 100 nM | < 30 nM | 8.3 nM | 69 nM | – | – |
| CC(C)(Cc1ccc(F)cc1)NC(=O)[C@@H](CCC(=O)O)NC(=O)c1ccc(-c2ccc(Cl)s2)cc1 [N^2-[4-(5-chloro-2-thienyl)benzoyl]-N-[2-(4-fluorophenyl)-1,1-dimethylethyl]-D-α-glutamine] | – | > 2700 nM | > 400 nM | – | – | – | – |
| CC(C)(Cc1ccc(F)cc1)NC(=O)[C@H](CCC(=O)O)NC(=O)c1ccc(-c2ccccc2)cc1F [N^2-[(3-fluorobiphenyl-4-yl)carbonyl]-N-[2-(4-fluorophenyl)-1,1-dimethylethyl]-L-α-glutamine] | – | 200 nM | < 30 nM | – | – | – | – |
| CC(C)(Cc1ccc(F)cc1)NC(=O)[C@H](CCC(=O)O)NC(=O)c1ccc(-c2cccc(Cl)c2)cc1 [N^2-[(3′-chlorobiphenyl-4-yl)carbonyl]-N-[2-(4-fluorophenyl)-1,1-dimethylethyl]-L-α-glutamine] | – | 200 nM | < 30 nM | 8.8 nM | 157 nM | – | – |
| CC(C)(Cc1ccc(F)cc1)NC(=O)[C@H](CCC(=O)O)NC(=O)c1ccc(-c2cccc(F)c2)cc1 [N^2-[(3′-fluorobiphenyl-4-yl)carbonyl]-N-[2-(4-fluorophenyl)-1,1-dimethylethyl]-L-α-glutamine] | – | 77 nM | < 30 nM | 4.5 nM | 81 nM | – | – |
| CC(C)(Cc1ccc(F)cc1)NC(=O)[C@H](CCC(=O)O)NC(=O)c1ccc(-c2ccc(Cl)cc2)cc1 [N^2-[(4′-chlorobiphenyl-4-yl)carbonyl]-N-[2-(4-fluorophenyl)-1,1-dimethylethyl]-L-α-glutamine] | – | 59 nM | < 30 nM | 6.7 nM | 54 nM | – | – |
| CC(C)(Cc1ccc(F)cc1)NC(=O)[C@H](CCC(=O)O)NC(=O)c1ccc(-c2ccc(F)cc2)cc1 [N^2-[(4′-fluorobiphenyl-4-yl)carbonyl]-N-[2-(4-fluorophenyl)-1,1-dimethylethyl]-L-α-glutamine] | – | 83 nM | < 30 nM | 6.9 nM | 75 nM | – | – |
